{"source": "patent US11415576B2", "about": "“Method for measurement of vitamin D” (Roche Diagnostics Operations, Inc., priority 2014, dated 2022)", "biological_target": "T1, ruthenylated Vitamin D-binding protein conjugate (Homo sapiens, UniProt P02774)", "T1 sequence (P02774 17-474)": "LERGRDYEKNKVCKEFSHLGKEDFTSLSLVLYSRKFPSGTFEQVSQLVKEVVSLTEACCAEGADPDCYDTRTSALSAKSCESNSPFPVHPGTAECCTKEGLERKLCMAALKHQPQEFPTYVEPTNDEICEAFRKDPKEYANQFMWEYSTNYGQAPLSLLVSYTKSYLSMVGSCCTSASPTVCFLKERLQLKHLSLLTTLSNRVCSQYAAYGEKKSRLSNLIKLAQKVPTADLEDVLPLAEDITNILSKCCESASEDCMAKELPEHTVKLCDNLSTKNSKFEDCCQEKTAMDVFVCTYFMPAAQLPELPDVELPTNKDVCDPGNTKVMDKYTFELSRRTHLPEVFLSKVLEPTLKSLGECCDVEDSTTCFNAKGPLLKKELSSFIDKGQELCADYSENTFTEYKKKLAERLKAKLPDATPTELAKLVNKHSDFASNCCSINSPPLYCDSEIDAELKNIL", "assay": "Elecsys Vitamin D total immunoassay, dilution series in Diluent Universal, without or with blocking reagent", "data": [{"smiles": "C=C1CC[C@H](O)C/C1=C/C=C1\\CCC[C@@]2(C)C1CC[C@@H]2[C@H](C)CCC(O)C(C)(C)O", "note": "(stereo partly shown) [24,25(OH)2VitD3, 24,25-dihydroxyvitamin D3]", "values": [{"measurement": "B/B0", "setting": "24 nmoL/L, Reference, without blocking reagent", "result": 67, "unit": "%"}, {"measurement": "B/B0", "setting": "24 nmoL/L, with mAb<24,25(OH)2VitD3> 0.075 mg/mL in R1", "result": 95, "unit": "%"}, {"measurement": "B/B0", "setting": "48 nmoL/L, Reference, without blocking reagent", "result": 53, "unit": "%"}, {"measurement": "B/B0", "setting": "48 nmoL/L, with mAb<24,25(OH)2VitD3> 0.075 mg/mL in R1", "result": 92, "unit": "%"}, {"measurement": "B/B0", "setting": "72 nmoL/L, Reference, without blocking reagent", "result": 37, "unit": "%"}, {"measurement": "B/B0", "setting": "72 nmoL/L, with mAb<24,25(OH)2VitD3> 0.075 mg/mL in R1", "result": 91, "unit": "%"}, {"measurement": "B/B0", "setting": "96 nmoL/L, Reference, without blocking reagent", "result": 32, "unit": "%"}, {"measurement": "B/B0", "setting": "96 nmoL/L, with mAb<24,25(OH)2VitD3> 0.075 mg/mL in R1", "result": 91, "unit": "%"}, {"measurement": "B/B0", "setting": "120 nmoL/L, Reference, without blocking reagent", "result": 26, "unit": "%"}, {"measurement": "B/B0", "setting": "120 nmoL/L, with mAb<24,25(OH)2VitD3> 0.075 mg/mL in R1", "result": 88, "unit": "%"}, {"measurement": "B/B0", "setting": "144 nmoL/L, Reference, without blocking reagent", "result": 25, "unit": "%"}, {"measurement": "B/B0", "setting": "144 nmoL/L, with mAb<24,25(OH)2VitD3> 0.075 mg/mL in R1", "result": 88, "unit": "%"}, {"measurement": "B/B0", "setting": "192 nmoL/L, Reference, without blocking reagent", "result": 21, "unit": "%"}, {"measurement": "B/B0", "setting": "192 nmoL/L, with mAb<24,25(OH)2VitD3> 0.075 mg/mL in R1", "result": 86, "unit": "%"}, {"measurement": "B/B0", "setting": "240 nmoL/L, Reference, without blocking reagent", "result": 18, "unit": "%"}, {"measurement": "B/B0", "setting": "240 nmoL/L, with mAb<24,25(OH)2VitD3> 0.075 mg/mL in R1", "result": 82, "unit": "%"}, {"measurement": "B/B0", "setting": "288 nmoL/L, Reference, without blocking reagent", "result": 15, "unit": "%"}, {"measurement": "B/B0", "setting": "288 nmoL/L, with mAb<24,25(OH)2VitD3> 0.075 mg/mL in R1", "result": 76, "unit": "%"}, {"measurement": "B/B0", "setting": "360 nmoL/L, Reference, without blocking reagent", "result": 13, "unit": "%"}, {"measurement": "B/B0", "setting": "360 nmoL/L, with mAb<24,25(OH)2VitD3> 0.075 mg/mL in R1", "result": 74, "unit": "%"}, {"measurement": "B/B0", "setting": "480 nmoL/L, Reference, without blocking reagent", "result": 11, "unit": "%"}, {"measurement": "B/B0", "setting": "480 nmoL/L, with mAb<24,25(OH)2VitD3> 0.075 mg/mL in R1", "result": 66, "unit": "%"}, {"measurement": "cross-reactivity of the reference immunoassay", "setting": "without blocking reagent", "result": "showed cross-reactivity"}]}, {"smiles": "C=C1CC[C@H](O)C/C1=C/C=C1\\CCC[C@]2(C)[C@@H]([C@H](C)CCCC(C)(C)O)CC[C@@H]12", "note": "[25(OH)VitD3, 25-hydroxyvitamin D3]", "values": [{"measurement": "B/B0", "setting": "25 nmoL/L, Reference, without blocking reagent", "result": 81, "unit": "%"}, {"measurement": "B/B0", "setting": "25 nmoL/L, with mAb<24,25(OH)2VitD3> 0.075 mg/mL in R1", "result": 77, "unit": "%"}, {"measurement": "B/B0", "setting": "50 nmoL/L, Reference, without blocking reagent", "result": 59, "unit": "%"}, {"measurement": "B/B0", "setting": "50 nmoL/L, with mAb<24,25(OH)2VitD3> 0.075 mg/mL in R1", "result": 63, "unit": "%"}, {"measurement": "B/B0", "setting": "75 nmoL/L, Reference, without blocking reagent", "result": 44, "unit": "%"}, {"measurement": "B/B0", "setting": "75 nmoL/L, with mAb<24,25(OH)2VitD3> 0.075 mg/mL in R1", "result": 49, "unit": "%"}, {"measurement": "B/B0", "setting": "100 nmoL/L, Reference, without blocking reagent", "result": 37, "unit": "%"}, {"measurement": "B/B0", "setting": "100 nmoL/L, with mAb<24,25(OH)2VitD3> 0.075 mg/mL in R1", "result": 42, "unit": "%"}, {"measurement": "B/B0", "setting": "125 nmoL/L, Reference, without blocking reagent", "result": 30, "unit": "%"}, {"measurement": "B/B0", "setting": "125 nmoL/L, with mAb<24,25(OH)2VitD3> 0.075 mg/mL in R1", "result": 33, "unit": "%"}, {"measurement": "B/B0", "setting": "150 nmoL/L, Reference, without blocking reagent", "result": 27, "unit": "%"}, {"measurement": "B/B0", "setting": "150 nmoL/L, with mAb<24,25(OH)2VitD3> 0.075 mg/mL in R1", "result": 30, "unit": "%"}, {"measurement": "B/B0", "setting": "200 nmoL/L, Reference, without blocking reagent", "result": 22, "unit": "%"}, {"measurement": "B/B0", "setting": "200 nmoL/L, with mAb<24,25(OH)2VitD3> 0.075 mg/mL in R1", "result": 23, "unit": "%"}, {"measurement": "B/B0", "setting": "250 nmoL/L, Reference, without blocking reagent", "result": 18, "unit": "%"}, {"measurement": "B/B0", "setting": "250 nmoL/L, with mAb<24,25(OH)2VitD3> 0.075 mg/mL in R1", "result": 18, "unit": "%"}, {"measurement": "B/B0", "setting": "300 nmoL/L, Reference, without blocking reagent", "result": 16, "unit": "%"}, {"measurement": "B/B0", "setting": "300 nmoL/L, with mAb<24,25(OH)2VitD3> 0.075 mg/mL in R1", "result": 15, "unit": "%"}, {"measurement": "B/B0", "setting": "374 nmoL/L, Reference, without blocking reagent", "result": 14, "unit": "%"}, {"measurement": "B/B0", "setting": "374 nmoL/L, with mAb<24,25(OH)2VitD3> 0.075 mg/mL in R1", "result": 13, "unit": "%"}, {"measurement": "B/B0", "setting": "499 nmoL/L, Reference, without blocking reagent", "result": 11, "unit": "%"}, {"measurement": "B/B0", "setting": "499 nmoL/L, with mAb<24,25(OH)2VitD3> 0.075 mg/mL in R1", "result": 10, "unit": "%"}, {"measurement": "cross-reactivity of the reference immunoassay", "setting": "without blocking reagent", "result": "showed cross-reactivity"}]}]}
